pIC50, pKd: −log10 of the molar value. Read-outs that look alike come from different tables or passages of the source. Blank lines part the entries; values can stand above or below the molecule they belong to.
Legend:
[1] = target: T1, Lp(a) assembly (recombinant human 16K apo(a) and apoB) (Homo sapiens, UniProt P08519); test: In vitro Lp(a) assembly assay; assay type: biochemical
T1 construct: containing one KIV type 1, six KIV type 2 repeats, one each of KIV types 3–10 and one KV; expressed in transfected cells; host or cells: Conditioned medium of HEK293 (CRL-1573) stably expressing 16K apo(a), combined with conditioned medium of wild-type HepG2 (HB-8065) for endogenous apoB
Protocol: HepG2 cells (HB-8065, ATCC) were cultured in Dulbecco’s modified Eagle’s medium, supplemented with 10% fetal bovine serum, 20 mM 4-(2-hydroxyethyl)-1-piperazineethanesulfonic acid (HEPES) and 100 U ml^−1 penicillin–streptomycin. apoB-conditioned media were collected after 24 h of culture at 37 °C and 5% CO2 from confluent wild-type HepG2 cells that endogenously express and secrete apoB. Apo(a)-conditioned media were collected after 24 h of culture at 37 °C and 5% CO2 from HEK293 cells (CRL-1573, ATCC) that stably express and secrete recombinant human 16K apo(a) protein containing one KIV type 1, six KIV type 2 repeats, one each of KIV types 3–10 and one KV.
The assembly assay was conducted in 96-well polypropylene plates by combining HepG2 and apo(a)-HEK293-conditioned media in the presence of a range of compound concentrations. After a two-hour incubation period at 37 °C, the reaction was stopped by the addition of 6-aminocaproic acid. Lp(a) was detected using a sandwich enzyme-linked immunosorbent assay (ELISA), with a polyclonal goat anti-apo(a) capture antibody (Abcam ab31675) and a biotin-conjugated, polyclonal goat anti-apoB detection antibody (Abcam ab20898). In brief, ELISA plates were coated with 100 μl of the capture antibody at a 1:12,500 dilution (around 4 μg ml^−1) into HEPES-buffered saline (HBS), incubated overnight at 4 °C, washed and blocked by the addition of 200 μl of 1% casein. After removal of the blocking buffer, 20 μl of each of the assembly reactions or of a dilution series of purified human Lp(a) (Athens Research, 12-16-121601), diluted 1:5 into HBS supplemented with 0.5% casein, were added to the ELISA plate. […] Absorbance at 450 nm was measured on an Envision plate reader.
The concentration of Lp(a) formed in each test condition was determined on the basis of the standard curve constructed from the purified human Lp(a) used as a reference standard, and was normalized to high (buffer) and low (no apoB) controls. […] Data were analysed in GraphPad Prism v.9.5.1.

apo(a) KIV5–8 [2] = target: T2, apo(a) KIV5–8 (Homo sapiens, UniProt P08519); test: ITC binding to apo(a) KIV5–8
T2 construct: made in house
T2 sequence (P08519 1043-1470 limits assumed): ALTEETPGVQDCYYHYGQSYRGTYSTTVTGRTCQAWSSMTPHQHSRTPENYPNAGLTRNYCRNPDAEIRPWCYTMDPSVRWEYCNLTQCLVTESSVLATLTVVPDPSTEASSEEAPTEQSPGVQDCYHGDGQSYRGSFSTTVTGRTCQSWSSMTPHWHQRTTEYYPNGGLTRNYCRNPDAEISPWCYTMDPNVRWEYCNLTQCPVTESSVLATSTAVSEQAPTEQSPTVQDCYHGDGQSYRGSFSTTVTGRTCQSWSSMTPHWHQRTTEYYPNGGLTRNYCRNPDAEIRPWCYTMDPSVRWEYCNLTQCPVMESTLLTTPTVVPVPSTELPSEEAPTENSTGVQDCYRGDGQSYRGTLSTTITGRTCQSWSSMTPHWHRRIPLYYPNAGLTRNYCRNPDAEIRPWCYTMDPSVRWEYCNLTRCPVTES
Protocol: (§1) The nucleotide sequence encoding the human LPA gene (NP_005568.2) was inserted into a mammalian expression vector containing a cytomegalovirus promoter. Protein expression was performed by transient transfection of human embryonic kidney 293 (HEK293) cells cultured in serum-free medium. The culture medium was collected five days after transfection and human apo(a) protein was purified using L-lysine affinity chromatography. Nucleotide sequences encoding various KIV domains of human apo(a) and human and rat plasminogen were inserted into a pET21a Escherichia coli expression vector. Bacterial BL21(DE3) was used as the expression host, and the induction of protein expression was performed in 2× TY medium with 1 mM isopropyl β-D-1-thiogalactopyranoside at 37 °C for 5 h. Cells were collected and stored at –80 °C for subsequent protein purification and refolding. […] All protein concentrations were determined by A280.
Experiments were performed on a MicroCal Auto-iTC200 titration calorimeter (Malvern Panalytical), with a cell volume of 200 μl and a 40-μl microsyringe. […] The microsyringe was loaded with a solution of the respective compounds, with the concentration measured by quantitative nuclear magnetic resonance, and was inserted into the calorimetric cell prefilled with the respective recombinant proteins of known concentration in ITC buffer. […]

rat plasminogen = test: Saturation radioligand binding to rat plasminogen
Protocol: (§2) Full-length apo(a) and various shorter constructs were prepared as described. Human and rat plasminogen, purified from plasma by affinity chromatography, were obtained from Innovative Research (IHGPG and IRPLG, respectively).
(§3) All reagents used in the binding assays were prepared in assay buffer containing 50 mM Tris-HCl, pH 7.4, and 0.1% bovine serum albumin. All apo(a) proteins were diluted to a final concentration of 200 pM. Human and rat plasminogen were diluted into assay buffer, and 250 ng was added to each well.
(§4) Saturation binding studies of ^3H-LSN3441732 or ^3H-LSN3374443 were conducted by adding to each well of a white-wall, clear-bottom 96-well plate, 50 µl each of (1) dimethyl sulfoxide (DMSO) or a saturating concentration (40 μM) of an unlabelled ligand; (2) protein diluted into assay buffer; (3) resuspended wheat germ agglutinin polyvinyltoluene scintillation proximity assay beads (2 mg ml^−1); and (4) a dilution series of radioligand. Plates were incubated for one to two hours at room temperature and counted on a Wallac Trilux 1450 liquid scintillation counter. Non-specific binding, defined as binding in the presence of the unlabelled ligand, was subtracted to determine specific binding. […]

[3] = target: T3, full-length recombinant 16K apo(a) (Homo sapiens, UniProt P08519); test: Radioligand binding to full-length recombinant 16K apo(a)
T3 construct: Full-length apo(a) and various shorter constructs were prepared as described; made in house
Protocol: (§5) The nucleotide sequence encoding the human LPA gene (NP_005568.2) was inserted into a mammalian expression vector containing a cytomegalovirus promoter. Protein expression was performed by transient transfection of human embryonic kidney 293 (HEK293) cells cultured in serum-free medium. The culture medium was collected five days after transfection and human apo(a) protein was purified using L-lysine affinity chromatography. Nucleotide sequences encoding various KIV domains of human apo(a) and human and rat plasminogen were inserted into a pET21a Escherichia coli expression vector. Bacterial BL21(DE3) was used as the expression host, and the induction of protein expression was performed in 2× TY medium with 1 mM isopropyl β-D-1-thiogalactopyranoside at 37 °C for 5 h. Cells were collected and stored at –80 °C for subsequent protein purification and refolding. The frozen cell pellets were lysed and inclusion bodies were purified. The protein refolding was performed using the rapid-dilution method, and the refolded proteins were further purified by size-exclusion chromatography. All protein concentrations were determined by A280.
as §2, §3
Saturation binding studies of ^3H-LSN3441732 or ^3H-LSN3374443 were conducted by adding to each well of a white-wall, clear-bottom 96-well plate, 50 µl each of (1) dimethyl sulfoxide (DMSO) or a saturating concentration (40 μM) of an unlabelled ligand; (2) protein diluted into assay buffer; (3) resuspended wheat germ agglutinin polyvinyltoluene scintillation proximity assay beads (2 mg ml^−1); and (4) a dilution series of radioligand. Plates were incubated for one to two hours at room temperature and counted on a Wallac Trilux 1450 liquid scintillation counter. Non-specific binding, defined as binding in the presence of the unlabelled ligand, was subtracted to determine specific binding. Specific binding was plotted as a function of ligand concentration, and a single-site binding equation of the form y = Bmax × x/(Kd + x) was fitted to the data, where Bmax is the maximum saturable binding and Kd is the equilibrium dissociation constant.

apo(a) KIV8 = target: T4, apo(a) KIV8 (Homo sapiens, UniProt P08519); test: Radioligand binding to apo(a) KIV8
T4 construct: made in house
T4 sequence (P08519 1387-1465 limits assumed): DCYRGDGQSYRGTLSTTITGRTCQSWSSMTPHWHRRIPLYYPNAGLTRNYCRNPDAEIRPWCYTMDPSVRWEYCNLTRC
Protocol: as §1, with “h.” for “h. Cells were collected and stored at –80 °C for subsequent protein purification and refolding.”, “A280. […]” for “A280.”
as §4, with “counter.” for “counter. Non-specific binding, defined as binding in the presence of the unlabelled ligand, was subtracted to determine specific binding.”

apo(a) KIV7 [4] = target: T5, apo(a) KIV7 (Homo sapiens, UniProt P08519); test: Radioligand binding to apo(a) KIV7; conditions: for Kd: radioligand binding
T5 construct: made in house
Protocol: as §5, §2
(§6) All reagents used in the binding assays were prepared in assay buffer containing 50 mM Tris-HCl, pH 7.4, and 0.1% bovine serum albumin. […]
as §4, with “counter.” for “counter. Non-specific binding, defined as binding in the presence of the unlabelled ligand, was subtracted to determine specific binding.”

apo(a) KIV7–8 = target: T6, apo(a) KIV7–8 (Homo sapiens, UniProt P08519); test: Radioligand binding to apo(a) KIV7–8; conditions: for Kd: radioligand binding
T6 construct: purified recombinant apo(a) KIV7–8 protein; made in house
T6 sequence (P08519 1263-1470 limits assumed): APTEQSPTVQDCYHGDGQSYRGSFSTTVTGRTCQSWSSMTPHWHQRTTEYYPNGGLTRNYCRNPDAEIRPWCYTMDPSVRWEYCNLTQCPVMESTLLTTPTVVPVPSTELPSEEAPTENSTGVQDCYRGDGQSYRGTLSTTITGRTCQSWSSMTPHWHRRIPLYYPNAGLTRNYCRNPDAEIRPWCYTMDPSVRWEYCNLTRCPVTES
Protocol: as §5, §2, §6
as §4, with “counter.” for “counter. Non-specific binding, defined as binding in the presence of the unlabelled ligand, was subtracted to determine specific binding.”

apo(a) KIV5–8 [5] = target: T2, apo(a) KIV5–8; test: Radioligand binding to apo(a) KIV5–8; conditions: Experiment 1, read-out: Kd (nM) KIV5–8 Exp 1
Protocol: as §1, with “h.” for “h. Cells were collected and stored at –80 °C for subsequent protein purification and refolding.”, “A280. […]” for “A280.”
as §4, with “counter.” for “counter. Non-specific binding, defined as binding in the presence of the unlabelled ligand, was subtracted to determine specific binding.”

Lp(a) = conditions: humans; cited from earlier work
apo(a) KIV7 [6] = target: apo(a) KIV7; parameters: method as in PMID 11802713; conditions: binding to lysine-binding domain of apo(a) KIV7; cited from earlier work
Lp(a) assembly = test system: Lp(a) assembly; parameters: method as in PMID 11802713; conditions: cited from earlier work

T3 sequence (P08519 20-2040): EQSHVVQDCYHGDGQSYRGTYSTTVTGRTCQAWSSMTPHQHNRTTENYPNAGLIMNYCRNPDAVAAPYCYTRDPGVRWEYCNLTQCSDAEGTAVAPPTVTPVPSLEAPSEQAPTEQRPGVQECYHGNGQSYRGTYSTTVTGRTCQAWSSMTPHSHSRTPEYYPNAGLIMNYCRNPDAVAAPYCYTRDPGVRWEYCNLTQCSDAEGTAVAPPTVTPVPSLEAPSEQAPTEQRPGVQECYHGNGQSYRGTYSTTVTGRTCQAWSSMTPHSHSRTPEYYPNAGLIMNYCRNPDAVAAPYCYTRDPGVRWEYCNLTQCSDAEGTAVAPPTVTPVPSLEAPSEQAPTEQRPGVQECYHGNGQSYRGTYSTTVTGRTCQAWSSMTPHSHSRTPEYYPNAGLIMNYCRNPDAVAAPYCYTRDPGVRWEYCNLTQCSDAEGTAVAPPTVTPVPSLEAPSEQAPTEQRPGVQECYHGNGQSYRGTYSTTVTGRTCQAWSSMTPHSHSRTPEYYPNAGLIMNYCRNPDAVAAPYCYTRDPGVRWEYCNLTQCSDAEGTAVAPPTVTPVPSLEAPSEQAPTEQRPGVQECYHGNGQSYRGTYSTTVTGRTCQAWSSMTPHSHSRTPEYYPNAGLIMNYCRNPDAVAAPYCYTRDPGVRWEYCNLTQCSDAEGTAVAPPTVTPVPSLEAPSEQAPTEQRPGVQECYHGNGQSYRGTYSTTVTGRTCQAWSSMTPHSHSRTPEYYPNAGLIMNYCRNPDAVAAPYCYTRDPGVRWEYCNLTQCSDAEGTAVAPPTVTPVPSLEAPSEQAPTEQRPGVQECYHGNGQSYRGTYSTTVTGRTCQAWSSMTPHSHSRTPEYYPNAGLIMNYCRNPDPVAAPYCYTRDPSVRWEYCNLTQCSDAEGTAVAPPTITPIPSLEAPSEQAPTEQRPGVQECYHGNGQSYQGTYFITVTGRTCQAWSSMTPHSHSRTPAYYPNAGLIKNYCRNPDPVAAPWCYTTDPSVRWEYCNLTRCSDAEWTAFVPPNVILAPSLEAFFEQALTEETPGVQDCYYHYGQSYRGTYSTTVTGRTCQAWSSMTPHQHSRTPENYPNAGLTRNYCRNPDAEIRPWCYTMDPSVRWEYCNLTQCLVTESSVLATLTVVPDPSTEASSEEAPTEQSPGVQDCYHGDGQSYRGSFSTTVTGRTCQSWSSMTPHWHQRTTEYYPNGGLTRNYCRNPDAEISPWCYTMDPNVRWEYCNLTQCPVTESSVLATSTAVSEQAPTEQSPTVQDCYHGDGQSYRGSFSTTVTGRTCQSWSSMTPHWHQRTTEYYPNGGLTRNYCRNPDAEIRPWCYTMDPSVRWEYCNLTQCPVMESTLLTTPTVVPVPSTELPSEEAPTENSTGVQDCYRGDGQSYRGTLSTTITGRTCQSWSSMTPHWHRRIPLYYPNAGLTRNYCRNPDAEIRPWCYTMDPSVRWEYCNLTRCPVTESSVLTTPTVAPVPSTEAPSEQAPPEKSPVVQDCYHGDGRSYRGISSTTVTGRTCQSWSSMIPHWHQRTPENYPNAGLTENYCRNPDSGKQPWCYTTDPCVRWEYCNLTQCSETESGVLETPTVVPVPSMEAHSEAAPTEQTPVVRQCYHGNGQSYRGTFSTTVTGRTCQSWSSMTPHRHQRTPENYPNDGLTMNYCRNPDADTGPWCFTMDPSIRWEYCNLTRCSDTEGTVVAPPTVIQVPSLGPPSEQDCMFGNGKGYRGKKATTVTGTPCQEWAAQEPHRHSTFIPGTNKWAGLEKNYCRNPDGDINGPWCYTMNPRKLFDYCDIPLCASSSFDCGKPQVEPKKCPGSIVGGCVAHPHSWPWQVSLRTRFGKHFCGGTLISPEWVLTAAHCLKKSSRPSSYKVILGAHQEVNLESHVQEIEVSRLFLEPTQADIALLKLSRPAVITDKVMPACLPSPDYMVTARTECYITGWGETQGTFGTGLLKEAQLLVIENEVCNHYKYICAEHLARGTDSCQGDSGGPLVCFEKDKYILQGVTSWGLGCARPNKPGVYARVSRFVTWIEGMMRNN
T1 sequence (P08519 20-2040): as above

pIC50 [1]: 7.44
pKd (apo(a) KIV5–8 [2]): > 7.82
Compound: COc1cccc(N2CCN(c3cccc(C[C@H](C(=O)O)[C@H]4CCNC4)c3)C2=O)c1 [LSN3374443]

fold higher affinity for rat plasminogen than for human plasminogen (rat plasminogen): 50 fold
Bmax, full-length apo(a) ([3]; direct radioligand binding): 4.9 fmol ng^−1 apo(a)
pKd ([3]; direct radioligand binding, mean): 10.30
ligands per molecule of apo(a) ([3]; from Bmax): one
fold affinity increase versus ^3H-LSN3374443 ([3]; full-length apo(a)): 50 fold
pKd (apo(a) KIV8; direct radioligand binding, read-out: Kd, single KIV8): 8.70
Kd (apo(a) KIV8; radioligand binding, Experiment 1, read-out: Kd (nM) KIV8 Exp 1): 3 nM
pKd (apo(a) KIV7 [4]; direct radioligand binding, read-out: Kd, single KIV7): 8.55
Kd (apo(a) KIV7 [4]; Experiment 1, read-out: Kd (nM) KIV7 Exp 1): 3 nM
Kd (apo(a) KIV7 [4]; Experiment 2, read-out: Kd (nM) KIV7 Exp 2): 2.7 nM
pKd (apo(a) KIV7–8; direct radioligand binding, read-out: Kd, KIV7–8): 9.68
Kd (apo(a) KIV7–8; Experiment 1, read-out: Kd (nM) KIV7–8 Exp 1): 0.32 nM
Kd (apo(a) KIV7–8; Experiment 2, read-out: Kd (nM) KIV7–8 Exp 2): 0.1 nM
Kd (apo(a) KIV5–8 [5]): 0.33 nM
Compound: O=C(Nc1cccc(C[C@H](C(=O)O)[C@H]2CCNC2)c1)Nc1cccc(C[C@H](C(=O)O)[C@H]2CCNC2)c1 [^3H-LSN3441732]

Compound: NC[C@H]1CC[C@H](C(=O)O)CC1 [tranexamic acid]
levels of Lp(a) in a small clinical study (Lp(a)): reduce the levels of Lp(a)
pKd (apo(a) KIV7 [6]): 4.20
in vitro assembly of Lp(a) (Lp(a) assembly): inhibited

Compound: NCCCCCC(=O)O [ε-aminocaproic acid]
pKd (apo(a) KIV7 [6]): 3.64
in vitro assembly of Lp(a) (Lp(a) assembly): inhibited
